# From the NIST ThermoML archive (doi:10.1016/j.fluid.2016.01.023)
# Numbers after ± are expanded uncertainties.
# Assay: mn = molality of the nth substance listed, in mol/kg
# Conditions: 303.15 K, 101 kPa, Liquid, Vibrating tube method
Compound,mass density (m1 = 0.01) [kg/m3],mass density (m1 = 0.101) [kg/m3],mass density (m1 = 0.5) [kg/m3],mass density (m1 = 1.001) [kg/m3],mass density (m1 = 1.501) [kg/m3],mass density (m1 = 0.043) [kg/m3],mass density (m1 = 0.1) [kg/m3],mass density (m1 = 0.417) [kg/m3],mass density (m1 = 0.896) [kg/m3],mass density (m1 = 1.454) [kg/m3],mass density (m1 = 0.053) [kg/m3],mass density (m1 = 1.002) [kg/m3],mass density (m1 = 1.502) [kg/m3]
O=C([O-])CCC(=O)C(=O)[O-].[Na+].[Na+] [disodium 2-oxo-glutarate] + O,996.13 ± 0.84,1007.45 ± 0.85,1042.49 ± 0.85,1093.14 ± 0.85,1147.45 ± 0.86,,,,,,,,
N[C@@H](CCC(=O)[O-])C(=O)O.[Na+] [sodium (S)-2-amino-4-carboxybutanoate] + O,996.19 ± 0.84,,,,,999.15 ± 0.84,1004.02 ± 0.84,1030.44 ± 0.84,1066.63 ± 0.85,1104.02 ± 0.85,,,
CC(=O)C(=O)[O-].[Na+] [sodium pyruvate] + O,995.66 ± 0.84,1000.51 ± 0.84,1018.19 ± 0.84,,,,,,,,997.57 ± 0.84,1041.67 ± 0.84,1065.87 ± 0.84
